Laboratory results as given in patent publication US7371779B2, “Synergistic compositions of N-acylhomoserine lactones and 4-quinolones” (The Secretary of State for Defense Science and Technology, priority 2001, dated 2008).
Entries after “also recorded” stand apart in the source; their conditions may differ.

Tests used:
[1] = tested on: hPBMC; experiment: Cell proliferation of hPBMC stimulated with anti-CD3 and anti-CD28; assay type: cell-based, human; conditions: four donors; for inhibition of proliferation of hPBMC stimulated via CD3 and CD28, in words: 0.78125 to 100 μM
Experimental: Anti-CD3 and anti-CD28 antibodies were used to assess the effect of quorum sensing signal molecules (PQS, OdDHL and OHHL) on T-cell proliferation and IL-2 secretion. Proliferation was assessed by the incorporation of [^3H]-thymidine into the DNA of PBMC and the release of cytokines in the culture supernatants was determined by ‘sandwich’ ELISA. Blood specimens were obtained with consent from four healthy human volunteers (aged between 20 and 50 years). Human PBMC were isolated from heparinised whole blood by buoyant density centrifugation over Histopaque 1077 (Sigma, Poole, UK) at 600 g for 20 minutes. PBMC harvested from the ‘buffy’ layers were washed twice with RPMI 1640 medium and resuspended in complete cell culture medium (CTCM) consisting of RPMI 1640 medium with 5% FCS, 2 mM L-glutamine, and 5×10^−5 M 2-mercaptoethanol. The quorum sensing molecules, of which stock solutions of 0.1 M were soluble in DMSO, were initially diluted into CTCM and then tested in triplicate wells at concentrations ranging from 0.78125 to 100 μM in 200 μl of CTCM, containing 100,000 hPBMC which were challenged with 100 ng/ml of mouse anti-human CD3 monoclonal antibody (clone UCHT1; BD Pharmingen, UK) and 5 μg/ml of mouse anti-human CD28 monoclonal antibody (clone CD28.2; BD Pharmingen, UK). hPBMC were incubated for 24 h at 37° C. in 5% CO2-air and 50 μl of culture supernatants were removed for the determination of IL-2 (see IV.II below). The cells were returned for a further 24 h culture, followed by pulsing with 0.25 μCi [^3H]-thymidine (Amersham) in 10 μl volume made up in RPMI 1640 medium. After a further incubation of 24 h, cells were harvested onto 96-well filter plates (Unifilter Filtermate Harvester™, Packard Bioscience Ltd, UK). Following the addition of 25 μl of scintillant (MicroScint-O™; Packard Bioscience Ltd. UK) to each well in the filter plates, the radioactivity in the filters was measured with a β-scintillation counter (TopCount™, Packard Bioscience Ltd, UK) according to manufacturer's specifications. […]

[2] = tested on: IL-2; experiment: Release of IL-2 from BALB/c splenocytes stimulated with ConA; conditions: ConA 1 μg/ml
[3] = tested on: TNFα; conditions: Infection and Immunity vol.66 no.1, 1998; cited from earlier work
[4] = tested on: murine splenocytes; experiment: ConA mitogen-stimulated proliferation of murine splenocytes ([3H]-thymidine incorporation); assay type: cell-based, mouse (BALB/c); conditions: for inhibition of ConA induced murine splenocyte proliferation (cpm), in words: ConA 1 μg/ml, BALB/c splenocytes
Experimental: (§1) Proliferation was assessed by the incorporation of [^3H]-thymidine into DNA. Eight-week-old female BALB/c mice were obtained from Harlan (Bicester, Oxon, UK) and given food and water ad libitum. Splenocyte suspensions were prepared by removing the spleens and placing them into RPMI 1640 medium. The spleens were forced through 70-μm-pore-size wire gauzes using the plunger from a 5-ml syringe to produce a single cell suspension. The cells were pelleted by centrifugation, and erythrocytes were lysed with 0.017 M Tris, 0.144 M ammonium chloride buffer, pH 7.2. Leucocytes were washed twice with RPMI 1640 medium with 2% (vol/vol) foetal calf serum (FCS) and resuspended in complete cell culture medium (CTCM) consisting of RPMI 1640 medium with 5% FCS, 2 mM L-glutamine, and 5×10^−5 M 2-mercaptoethanol. HSL compounds were tested at doubling down dilutions ranging from 1 mM to 0.1 μM in a final volume of 200 μl of CTCM, containing ConA (Sigma, Poole, UK) at 1 μg/ml and 100,000 spleen cells. Following incubation for 48 h at 37° C. in 5% CO2-air, 0.25 μCi [^3H]-thymidine (Amersham) in 10 μl volume made up in RPMI 1640 medium was added and the cells were incubated for a further 24 h. Cells were harvested onto fibreglass filters with a Packard filtermate harvester. After the addition of 25 μl of MicroScint-O (Packard) to each well the filters were counted with the Packard TopCount scintillation counter.
(§2) Mitogen (Concanavalin A) induced murine splenocyte proliferation was indicated by the incorporation of tritated thymidine into the DNA in the mouse spleen cells as shown by counts per minute using the scintillation counter. The inhibitory effect of an HSL compound being tested on cell proliferation was indicated by a reduction in counts per minute.
as §1, with “70 μm pore size” for “70-μm-pore-size”, “5 ml” for “5-ml”, “The title compound was” for “HSL compounds were”, “dilutions” for “dilutions ranging from 1 mM to 0.1 μM in a final volume of 200 μl of CTCM,”, “g/ml” for “μg/ml”, “COrair,” for “CO2-air,”
as §2, with “the title” for “an HSL”

SMILES: CCCCCCCCCC(=O)CC(=O)N[C@H]1CCOC1=O [Example 6]
- inhibition of proliferation of hPBMC stimulated via CD3 and CD28, in words ([1]; listed as OdDHL): inhibited, in a dose dependent manner; also recorded: inhibit the proliferation of stimulated hPBMC
- inhibition of release of IL-2 from BALB/c splenocytes, in words [2]: inhibit the release of IL-2
- inhibition of TNFα production by LPS-stimulated adherent murine peritoneal macrophages [3]: inhibiting
- effect of OdDHL alone on murine splenocyte proliferation ([4]; 6.25 μM, alone): inactive
- IC50 ([4]; ConA 1 μg/ml, 100,000 spleen cells, Experiment I, read-out: IC50 in inhibition of ConA induced murine splenocyte proliferation): 4 µM
- inhibition of ConA induced murine splenocyte proliferation (cpm), in words ([4]; listed as OdDHL): inhibits splenocyte proliferation; also recorded: inhibit the proliferation

SMILES: CCCCCCCc1[nH]c2ccccc2c(=O)c1O [PQS]
- potency relative to OdDHL in inhibition of CD3/CD28 stimulated hPBMC proliferation [1]: consistently more potent than OdDHL
- inhibition of proliferation of hPBMC stimulated via CD3 and CD28, in words [1]: inhibited, in a dose dependent manner; also recorded: inhibit the proliferation of stimulated hPBMC
- inhibition of release of IL-2 from BALB/c splenocytes, in words [2]: inhibit the release of IL-2
- inhibition of ConA induced murine splenocyte proliferation (cpm), in words [4]: inhibit the proliferation
- inhibition of ConA induced murine splenocyte proliferation (cpm), in words ([4]; listed as 2-heptyl-3-hydroxy-4(1H)quinolone): inhibits splenocyte proliferation
